According to patent US20140329797A1, “SUBSTITUTED OXADIAZOLYL PYRIDINONES AND OXADIAZOLYL PYRIDAZINONES AS HIF INHIBITORS” (Bayer Intellectual Property GmbH, priority 2011, published 2014):

What follows are compounds tested on HCT 116 cells transfected with a luciferase reporter under the control of an HIF-responsive sequence (assay: HIF-luciferase assay). Conditions: Homo sapiens; HCT 116 HIF-luciferase reporter cells, hypoxia chamber (1% O2), 24 h; in some cases means of up to four individual determinations.
Type: cell-based
Method: B-1. HIF-Luciferase Assay
HCT 116 cells were transfected in a stable manner with a plasmid which contained a luciferase reporter under the control of an HIF-responsive sequence. These cells were sown in microtitre plates [20000 cells/cavity in RPMI 1640 medium with 10% foetal calf serum (FCS) and 100 μg/ml of hygromycin]. Incubation was carried out overnight under standard conditions (5% CO2, 21% O2, 37° C., moistened). The following morning the cells were incubated with various concentrations of the test substances (0-10 μmol/l) in a hypoxia chamber (1% O2). After 24 h, Bright Glo reagent (Promega, Wisconsin, USA) was added in accordance with the manufacturer's instructions, and after 5 min the luminescence was measured. Cells which were incubated under normoxia served as background controls.

SMILES	IC50 [µM]
CN1CCN(c2cc(Cn3cc(-c4nc(-c5ccc(SC(F)(F)F)cc5)no4)ccc3=O)ccn2)CC1 [Example 47, 1-{[2-(4-Methylpiperazin-1-yl)pyridin-4-yl]methyl}-5-(3-{4-[(trifluoromethyl)sulphanyl]phenyl}-1,2,4-oxadiazol-5-yl)pyridin-2(1H)-one]	0.04
CN1CCN(c2cc(Cn3cc(-c4nc(-c5ccc(C6(C(F)(F)F)CC6)cc5)no4)ccc3=O)ccn2)CC1 [Example 48, 1-{[2-(4-Methylpiperazin-1-yl)pyridin-4-yl]methyl}-5-(3-{4-[1-(trifluoromethyl)cyclopropyl]phenyl}-1,2,4-oxadiazol-5-yl)pyridin-2(1H)-one]	0.05
CC(=O)N1CCN(c2cc(Cn3cc(-c4nc(-c5ccc(SC(F)(F)F)cc5)no4)ccc3=O)ccn2)CC1 [Example 55, 1-{[2-(4-Acetylpiperazin-1-yl)pyridin-4-yl]methyl}-5-(3-{4-[(trifluoromethyl)sulphanyl]phenyl}-1,2,4-oxadiazol-5-yl)pyridin-2(1H)-one]	0.02
CNc1ccc(Cn2cc(-c3nc(-c4ccc(C(C)(C)C(F)(F)F)cc4)no3)ccc2=O)cn1 [Example 60, 1-{[6-(Methylamino)pyridin-3-yl]methyl}-5-{3-[4-(1,1,1-trifluoro-2-methylpropan-2-yl)phenyl]-1,2,4-oxadiazol-5-yl}pyridin-2(1H)-one]	0.02
O=c1ccc(-c2nc(-c3ccc(OC(F)(F)F)cc3)no2)cn1Cc1ccc(NCCCO)nc1 [Example 63, 1-({6-[(3-Hydroxypropyl)amino]pyridin-3-yl}methyl)-5-{3-[4-(trifluoromethoxy)phenyl]-1,2,4-oxadiazol-5-yl}pyridin-2(1H)-one]	0.03
Cc1ccc(Cn2nc(-c3nc(-c4ccc(OC(F)(F)F)cc4)no3)ccc2=O)cc1 [Example 65, 2-(4-Methylbenzyl)-6-{3-[4-(trifluoromethoxy)phenyl]-1,2,4-oxadiazol-5-yl}pyridazin-3(2H)-one]	0.2
CNC(=O)c1cccc(Cn2nc(-c3nc(-c4ccc(C(C)(C)C(F)(F)F)cc4)no3)ccc2=O)c1 [Example 70, N-Methyl-3-{[6-oxo-3-{3-[4-(1,1,1-trifluoro-2-methylpropan-2-yl)phenyl]-1,2,4-oxadiazol-5-yl}pyridazin-1(6H)-yl]methyl}benzamide]	0.06
CC(C)(c1ccc(-c2noc(-c3ccc(=O)n(Cc4cccc(C(=O)NCCCO)c4)n3)n2)cc1)C(F)(F)F [Example 73, N-(3-Hydroxypropyl)-3-{[6-oxo-3-{3-[4-(1,1,1-trifluoro-2-methylpropan-2-yl)phenyl]-1,2,4-oxadiazol-5-yl}pyridazin-1(6H)-yl]methyl}benzamide]	0.05
O=C(c1cccc(Cn2nc(-c3nc(-c4ccc(OC(F)(F)F)cc4)no3)ccc2=O)c1)N1CC(O)C1 [Example 76, 2-{3-[(3-Hydroxyazetidin-1-yl)carbonyl]benzyl}-6-{3-[4-(trifluoromethoxy)phenyl]-1,2,4-oxadiazol-5-yl}pyridazin-3(2H)-one]	0.02
O=C(c1cccc(Cn2nc(-c3nc(-c4ccc(OC(F)(F)F)cc4)no3)ccc2=O)c1)N1CCC(O)CC1 [Example 82, 2-{3-[(4-Hydroxypiperidin-1-yl)carbonyl]benzyl}-6-{3-[4-(trifluoromethoxy)phenyl]-1,2,4-oxadiazol-5-yl}pyridazin-3(2H)-one]	0.015
O=C(c1cccc(Cn2nc(-c3nc(-c4ccc(OC(F)(F)F)cc4)no3)ccc2=O)c1)N1CCOCC1 [Example 84, 2-[3-(Morpholin-4-ylcarbonyl)benzyl]-6-{3-[4-(trifluoromethoxy)phenyl]-1,2,4-oxadiazol-5-yl}pyridazin-3(2H)-one]	0.02
CN1CCN(C(=O)c2cccc(Cn3nc(-c4nc(-c5ccc(C(C)(C)C(F)(F)F)cc5)no4)ccc3=O)c2)CC1 [Example 86, 2-{3-[(4-Methylpiperazin-1-yl)carbonyl]benzyl}-6-{3-[4-(1,1,1-trifluoro-2-methylpropan-2-yl)phenyl]-1,2,4-oxadiazol-5-yl}pyridazin-3(2H)-one]	0.04

Results, then the compound that gave them:

IC50 [µM]	SMILES
0.005	CC(C)(O)Cc1cccc(Cn2cc(-c3nc(-c4ccc(OC(F)(F)F)cc4)no3)ccc2=O)c1 [Example 41, 1-[3-(2-Hydroxy-2-methylpropyl)benzyl]-5-{3-[4-(trifluoromethoxy)phenyl]-1,2,4-oxadiazol-5-yl}pyridin-2(1H)-one]
0.008	CC(C)(O)Cc1cccc(Cn2cc(-c3nc(-c4ccc(C(C)(C)C(F)(F)F)cc4)no3)ccc2=O)c1 [Example 42, 1-[3-(2-Hydroxy-2-methylpropyl)benzyl]-5-{3-[4-(1,1,1-trifluoro-2-methylpropan-2-yl)phenyl]-1,2,4-oxadiazol-5-yl}pyridin-2(1H)-one]
0.01	O=c1ccc(-c2nc(-c3ccc(OC(F)(F)F)cc3)no2)cn1Cc1cccc(C2(CO)CC2)c1 [Example 43, 1-{3-[1-(Hydroxymethyl)cyclopropyl]benzyl}-5-{3-[4-(trifluoromethoxy)phenyl]-1,2,4-oxadiazol-5-yl}pyridin-2(1H)-one]
0.015	CC(C)(c1ccc(-c2noc(-c3ccc(=O)n(Cc4cccc(C5(CO)CC5)c4)c3)n2)cc1)C(F)(F)F [Example 44, 1-{3-[1-(Hydroxymethyl)cyclopropyl]benzyl}-5-{3-[4-(1,1,1-trifluoro-2-methylpropan-2-yl)phenyl]-1,2,4-oxadiazol-5-yl}pyridin-2(1H)-one]
0.005	N#CC1CCN(c2cc(Cn3cc(-c4nc(-c5ccc(OC(F)(F)F)cc5)no4)ccc3=O)ccn2)CC1 [Example 45, 1-(4-{[2-oxo-5-{3-[4-(trifluoromethoxy)phenyl]-1,2,4-oxadiazol-5-yl}pyridin-1(2H)-yl]methyl}pyridin-2-yl)piperidine-4-carbonitrile]
0.003	O=c1ccc(-c2nc(-c3ccc(OC(F)(F)F)cc3)no2)cn1Cc1ccnc(N2CCN(CC(F)(F)F)CC2)c1 [Example 49, 1-({2-[4-(2,2,2-Trifluoroethyl)piperazin-1-yl]pyridin-4-yl}methyl)-5-{3-[4-(trifluoromethoxy)phenyl]-1,2,4-oxadiazol-5-yl}pyridin-2(1H)-one]
0.002	O=c1ccc(-c2nc(-c3ccc(OC(F)(F)F)cc3)no2)cn1Cc1ccnc(N2CCN(C3CC3)CC2)c1 [Example 51, 1-{[2-(4-Cyclopropylpiperazin-1-yl)pyridin-4-yl]methyl}-5-{3-[4-(trifluoromethoxy)phenyl]-1,2,4-oxadiazol-5-yl}pyridin-2(1H)-one]
0.005	O=c1ccc(-c2nc(-c3ccc(SC(F)(F)F)cc3)no2)cn1Cc1ccnc(N2CCN(C3CC3)CC2)c1 [Example 52, 1-{[2-(4-Cyclopropylpiperazin-1-yl)pyridin-4-yl]methyl}-5-(3-{4-[(trifluoromethyl)sulphanyl]phenyl}-1,2,4-oxadiazol-5-yl)pyridin-2(1H)-one]
0.004	CC(C)(c1ccc(-c2noc(-c3ccc(=O)n(Cc4ccnc(N5CCN(C6CC6)CC5)c4)c3)n2)cc1)C(F)(F)F [Example 53, 1-{[2-(4-Cyclopropylpiperazin-1-yl)pyridin-4-yl]methyl}-5-{3-[4-(1,1,1-trifluoro-2-methylpropan-2-yl)phenyl]-1,2,4-oxadiazol-5-yl}pyridin-2(1H)-one]
0.004	O=c1ccc(-c2nc(-c3ccc(C4(C(F)(F)F)CC4)cc3)no2)cn1Cc1ccnc(N2CCN(C3CC3)CC2)c1 [Example 54, 1-{[2-(4-Cyclopropylpiperazin-1-yl)pyridin-4-yl]methyl}-5-(3-{4-[1-(trifluoromethyl)cyclopropyl]phenyl}-1,2,4-oxadiazol-5-yl)pyridin-2(1H)-one]
0.0125	CNc1ccc(Cn2cc(-c3nc(-c4ccc(OC(F)(F)F)cc4)no3)ccc2=O)cn1 [Example 59, 1-{[6-(Methylamino)pyridin-3-yl]methyl}-5-{3-[4-(trifluoromethoxy)phenyl]-1,2,4-oxadiazol-5-yl}pyridin-2(1H)-one]
0.0015	N#CC1CCN(c2cccc(Cn3nc(-c4nc(-c5ccc(OC(F)(F)F)cc5)no4)ccc3=O)c2)CC1 [Example 66, 1-(3-{[6-oxo-3-{3-[4-(trifluoromethoxy)phenyl]-1,2,4-oxadiazol-5-yl}pyridazin-1(6H)-yl]methyl}phenyl)piperidine-4-carbonitrile]
0.01	O=C(c1cccc(Cn2nc(-c3nc(-c4ccc(OC(F)(F)F)cc4)no3)ccc2=O)c1)N1CCC1 [Example 74, 2-[3-(Azetidin-1-ylcarbonyl)benzyl]-6-{3-[4-(trifluoromethoxy)phenyl]-1,2,4-oxadiazol-5-yl}pyridazin-3(2H)-one]
0.005	O=C(c1cccc(Cn2nc(-c3nc(-c4ccc(OC(F)(F)F)cc4)no3)ccc2=O)c1)N1CCCC1 [Example 78, 2-[3-(Pyrrolidin-1-ylcarbonyl)benzyl]-6-{3-[4-(trifluoromethoxy)phenyl]-1,2,4-oxadiazol-5-yl}pyridazin-3(2H)-one]
0.005	O=C(c1cccc(Cn2nc(-c3nc(-c4ccc(OC(F)(F)F)cc4)no3)ccc2=O)c1)N1CCCO1 [Example 80, 2-[3-(1,2-Oxazolidin-2-ylcarbonyl)benzyl]-6-{3-[4-(trifluoromethoxy)phenyl]-1,2,4-oxadiazol-5-yl}pyridazin-3(2H)-one]
0.005	O=C(c1cccc(Cn2nc(-c3nc(-c4ccc(OC(F)(F)F)cc4)no3)ccc2=O)c1)N1CCN(C2CC2)CC1 [Example 87, 2-{3-[(4-Cyclopropylpiperazin-1-yl)carbonyl]benzyl}-6-{3-[4-(trifluoromethoxy)phenyl]-1,2,4-oxadiazol-5-yl}pyridazin-3(2H)-one]
